Experiment [1] deals with T1, PKR in ex vivo red blood cells from healthy individuals (Homo sapiens, UniProt P30613).
T1 construct: endogenous in cells; host or cells: human red blood cells isolated from fresh peripheral blood of healthy individuals
Briefly: ex vivo pyruvate kinase (PKR) activity experiment, red blood cells of healthy individuals. The note with it: 3 hours co-cultivation. Format: cell-based. Summed up:
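Washed, Percoll-purified human RBCs at 1 × 10^7 cells/mL were exposed to compound (final 1–3000 nM, 1% DMSO) for 3 h at 37°C, then lysed. PKR activity in lysate was followed kinetically by fluorescence at 540/590 nm over 1 h. Slope versus 1% DMSO control gave % activation; AC50 from variable-slope fit.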

The next experiment addresses recombinant human PKR (Homo sapiens, UniProt P30613). Briefly: pyruvate kinase (PKR) activity test, activation of recombinant enzyme (fluorescence kit). Type of experiment: biochemical. The method, then:
To test the activation effect of the compound of the present disclosure on recombinant human PKR.
3.1 A recombinant human PKR enzyme solution was prepared at a concentration of 60 ng/well (a 20 µL reaction system), and 5 µL of the solution was added into each well of a black transparent bottom 384-well plate.
3.2 Compound solutions were prepared at different concentrations, with the final concentrations of 1000/300/100 nM (containing 1% DMSO). Each 5 µL of the compound solution was added into the plate in step 3.1 and mixed well. The plate was incubated at room temperature for 10 min.
3.3 A reaction system was prepared according to the instructions of a kit (as shown in the table below), and 10 µL of the reaction system was added into each well of the 384-well plate, and mixed uniformly with the solution in step 3.2.
3.4 The 384-well plate was placed on a microplate reader to detect the fluorescence value at 540/590 nm, where the value was read every 2 minutes and the detection was conducted continuously for 1 hour.
3.5 The Slope value within the detection time was calculated, and the 1% DMSO well was used as a control well to calculate a compound activation rate. Activation rate % = (Slopeofcompoundwell/Slopeofcontrolwell) × 100% [formula]
With the log value of the compound concentration as the X axis and the percentage activation rate as the Y axis, a dose-effect curve was fitted with the log(agonist) vs. response-variable slope of the analysis software GraphPad Prism 5, and the AC50 value of the activity of each compound against PKR was obtained. Y = min + (max−min)/(1+10^(∧)((LogAC50−X)×Hillslope)). [formula]

The conditions of experiment [2]: Phase II clinical studies, at week 12; cited from earlier work.

The values that follow come from patent EP4721737A1, “USE OF PHARMACEUTICAL COMPOSITION COMPRISING COMPOUND HAVING BIS(AZANYLYLIDENE) SULFONYL STRUCTURE FOR TREATING ANEMIA-RELATED DISEASES” (Scinnohub Pharmaceutical Co., Ltd., priority 2023, dated 2024).

The term AC50 denotes the midpoint of the concentration-response curve, whichever way the signal moves.

Some results are limits rather than exact numbers.

Sequence of recombinant human PKR (P30613 whole entry): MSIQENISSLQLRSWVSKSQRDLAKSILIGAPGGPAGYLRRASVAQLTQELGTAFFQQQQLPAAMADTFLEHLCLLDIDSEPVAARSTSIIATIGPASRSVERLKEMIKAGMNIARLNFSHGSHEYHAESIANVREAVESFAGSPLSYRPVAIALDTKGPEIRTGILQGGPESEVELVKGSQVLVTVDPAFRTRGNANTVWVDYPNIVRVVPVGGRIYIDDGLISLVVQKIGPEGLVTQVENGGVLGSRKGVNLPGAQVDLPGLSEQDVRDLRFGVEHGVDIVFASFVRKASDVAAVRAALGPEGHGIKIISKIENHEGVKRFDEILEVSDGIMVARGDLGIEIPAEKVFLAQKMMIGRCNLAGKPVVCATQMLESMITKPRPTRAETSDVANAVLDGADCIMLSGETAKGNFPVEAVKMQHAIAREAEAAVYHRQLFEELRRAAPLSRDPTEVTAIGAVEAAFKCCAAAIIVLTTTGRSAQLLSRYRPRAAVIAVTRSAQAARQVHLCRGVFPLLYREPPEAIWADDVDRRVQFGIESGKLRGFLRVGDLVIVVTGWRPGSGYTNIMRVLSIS
T1 sequence (P30613 whole entry): as above

On to `COc1ccc(C(CO)C(=O)N2CC(=C3CN(S(=O)(=O)c4ccccn4)C3)C2)cc1` (stereo not drawn) [Compound 53, 3-hydroxy-2-(4-methoxyphenyl)-1-(1'-(pyridin-2-ylsulfonyl)-1',4'-dihydro-2H,2'H-[3,3'-diazetidinylidene]-1(4H)-yl)propan-1-one], for which the half-maximal activity concentration (AC50) was in the range of 101 to 300 nM in experiment [1] and 300 to 1000 nM at recombinant human PKR.

In the case of `CC(C)(O)C(C(=O)N1CC(=C2CN(S(=O)(=O)c3ccccn3)C2)C1)c1ccccc1` (stereo not drawn) [Compound 62, 3-hydroxy-3-methyl-2-phenyl-1-(1'-(pyridin-2-ylsulfonyl)-1',4'-dihydro-2H,2'H-[3,3'-diazetidinylidene]-1(4H)-yl)butan-1-one], the AC50 (in experiment [1]; on recombinant human PKR) was 300 to 1000 nM in each case.

With `O=C(C(CO)c1ccc(F)cc1)N1CC(=C2CN(S(=O)(=O)c3ccc4ncsc4c3)C2)C1` [Compound 50, (S)-1-(1'-(benzo[d]thiazol-6-ylsulfonyl)-1',4'-dihydro-2H,2'H-[3,3'-diazetidinylidene]-1(4H)-yl)-2-(4-fluorophenyl)-3-hydroxypropan-1-one], the concentration at half-maximal activity (AC50) (in experiment [1]; at recombinant human PKR) was < 100 nM throughout.

In the case of `O=C(N1CC(=C2CN(S(=O)(=O)c3ccccn3)C2)C1)C1(c2ccccc2)COC1` [Compound 89, (3-phenyloxetan-3-yl)(1'-(pyridin-2-ylsulfonyl)-1',4'-dihydro-2H,2'H-[3,3'-diazetidinylidene]-1(4H)-yl)methanone], the concentration at half-maximal activity (AC50) in experiment [1] is < 100 nM; on recombinant human PKR it was 101 to 300 nM.

With `O=C(C(CO)c1ccccc1)N1CC(=C2CN(S(=O)(=O)c3ccc(OC(F)F)cc3)C2)C1` (stereo not drawn) [Compound 6, 1-(1'-((4-(difluoromethoxy)phenyl)sulfonyl)-1',4'-dihydro-2H,2'H-[3,3'-diazetidinylidene]-1(4H)-yl)-3-hydroxy-2-phenylpropan-1-one], the figures for the half-maximal activity concentration (AC50) (in experiment [1]; at recombinant human PKR) were 101 to 300 nM and < 100 nM, respectively.

Consider `O=C(c1ccc(NS(=O)(=O)c2cccc3cccnc23)cc1)N1CCN(CC2CC2)CC1` [Mitapivat], for which, in experiment [2], the “average increase in HGB” value was 1.34 g/dL and the “patients achieved an increase in HGB of 1.0 g/dL” value is on record as 92.3%.

With `O=C(N1CC(=C2CN(S(=O)(=O)c3ccccn3)C2)C1)C1(c2ccccc2)CCOCC1` [Compound 58], the half-maximal activity concentration (AC50) (in experiment [1]; at recombinant human PKR) was 101 to 300 nM in each case.

On to `Cc1ccc(C(CO)C(=O)N2CC(=C3CN(S(=O)(=O)c4ccccn4)C3)C2)cc1` (stereo not drawn) [Compound 57, 3-hydroxy-1-(1'-(pyridin-2-ylsulfonyl)-1',4'-dihydro-2H,2'H-[3,3'-diazetidinylidene]-1(4H)-yl)-2-(p-tolyl)propan-1-one], for which the half-maximal activity concentration (AC50) in experiment [1] is < 100 nM; on recombinant human PKR, 101 to 300 nM.

Take `O=C(c1c[nH]c2ccccc12)N1CC(=C2CN(S(=O)(=O)c3ccc4ncsc4c3)C2)C1` [Compound 52, (1'-(benzo[d]thiazol-6-ylsulfonyl)-1',4'-dihydro-2H,2'H-[3,3'-diazetidinylidene]-1(4H)-yl)(1H-indol-3-yl)methanone]: the half-maximal activity concentration (AC50) (in experiment [1]; on recombinant human PKR) was 300 to 1000 nM in each case.

Take `O=C(C(CO)c1cccnc1)N1CC(=C2CN(S(=O)(=O)c3ccccn3)C2)C1` (stereo not drawn) [Compound 60, 3-hydroxy-1-(1'-(pyridin-2-ylsulfonyl)-1',4'-dihydro-2H,2'H-[3,3'-diazetidinylidene]-1(4H)-yl)-2-(pyridin-3-yl)propan-1-one]: the concentration at half-maximal activity (AC50) (in experiment [1]; at recombinant human PKR) was 300 to 1000 nM in each case.

`O=C(C(CO)c1ccc(F)cc1)N1CC(=C2CN(S(=O)(=O)c3ccc4c(c3)OCCO4)C2)C1` (stereo not drawn) [Compound 18, 1-(1'-((2,3-dihydrobenzo[b][1,4]dioxin-6-yl)sulfonyl)-1',4'-dihydro-2H,2'H-[3,3'-diazetidinylidene]-1 (4H)-yl)-2-(4-fluorophenyl)-3-hydroxypropan-1-one]: the half-maximal activity concentration (AC50) (in experiment [1]; at recombinant human PKR) was < 100 nM in each case.

Consider `CNCC(C(=O)N1CC(=C2CN(S(=O)(=O)c3ccc4c(c3)OCCO4)C2)C1)c1cccc(Cl)c1` (stereo not drawn) [Compound 26, 2-(3-chlorophenyl)-1-(1'-((2,3-dihydrobenzo[b][1,4]dioxin-6-yl)sulfonyl)-1',4'-dihydro-2H,2'H-[3,3'-diazetidinylidene]-1(4H)-yl)-3-(methylamino)propan-1-one], for which the AC50 in experiment [1] was 300 to 1000 nM; on recombinant human PKR, < 100 nM.
